pIC50: −log10 of the molar value. Where two headings read alike, the source gives them in different places.
What was measured:
Type in all cases: biochemical
PTP-MEG2 = molecular target: T1, PTP-MEG2 (Homo sapiens, UniProt P43378); experiment: Enzymatic assay with pNPP as substrate, PTP-MEG2; settings: pH 6.0, 37°C 30 min
T1 construct: host or cells: E. coli
T1 sequence (P43378 1-593): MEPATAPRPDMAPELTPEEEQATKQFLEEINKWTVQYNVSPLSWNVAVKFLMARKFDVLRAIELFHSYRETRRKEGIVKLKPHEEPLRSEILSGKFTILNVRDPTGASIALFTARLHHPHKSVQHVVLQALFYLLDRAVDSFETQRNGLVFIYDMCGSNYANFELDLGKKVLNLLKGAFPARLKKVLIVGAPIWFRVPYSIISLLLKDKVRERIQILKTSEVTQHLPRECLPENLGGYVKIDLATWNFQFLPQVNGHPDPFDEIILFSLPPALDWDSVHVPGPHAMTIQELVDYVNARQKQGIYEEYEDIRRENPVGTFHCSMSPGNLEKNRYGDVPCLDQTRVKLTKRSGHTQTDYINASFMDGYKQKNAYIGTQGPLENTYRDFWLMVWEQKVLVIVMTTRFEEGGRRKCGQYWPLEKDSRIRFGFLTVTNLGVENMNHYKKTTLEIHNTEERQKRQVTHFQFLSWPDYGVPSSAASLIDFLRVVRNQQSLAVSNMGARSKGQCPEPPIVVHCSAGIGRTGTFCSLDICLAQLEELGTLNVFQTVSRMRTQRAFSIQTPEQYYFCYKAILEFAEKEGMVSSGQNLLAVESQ
Experimental: (§1) Briefly, pNPP was hydrolyzed by PTPs to give para-nitrophenol. Para-nitrophenol converts into para-nitrophenolate (pNP), measured with a spectrophotometer after stopping solution was added. The regents and chemicals used in this assay are as follows: Ni-NTA labeled human recombinant PTPs expressed in E coli; de-phosphorylation assay buffer (50 mM citrate (pH 6.0), 0.1 M NaCl, 1 mM EDTA and 1 mM dithiothreitol (DTT)); substrate (2 mM pNPP) in assay buffer; stopping solution (0.2 M sodium hydroxide). PTPs and test-compounds with geometrically increasing concentrations were mixed in 50 μL buffer in each well of a 96-well plate. An equivalent volume of buffer without PTPs was used as blank control. After pre-incubation for 15 min at room temperature, the substrate (50 μL) was added into each well and incubated at 37°C for 30 min. Stopping buffer was poured into each well on ice and the OD value was read at 405 nm against blank.

TCPTP = molecular target: T2, TCPTP (Homo sapiens, UniProt P17706); experiment: Enzymatic assay with pNPP as substrate, TCPTP
T2 construct: host or cells: E. coli
T2 sequence (P17706 1-415): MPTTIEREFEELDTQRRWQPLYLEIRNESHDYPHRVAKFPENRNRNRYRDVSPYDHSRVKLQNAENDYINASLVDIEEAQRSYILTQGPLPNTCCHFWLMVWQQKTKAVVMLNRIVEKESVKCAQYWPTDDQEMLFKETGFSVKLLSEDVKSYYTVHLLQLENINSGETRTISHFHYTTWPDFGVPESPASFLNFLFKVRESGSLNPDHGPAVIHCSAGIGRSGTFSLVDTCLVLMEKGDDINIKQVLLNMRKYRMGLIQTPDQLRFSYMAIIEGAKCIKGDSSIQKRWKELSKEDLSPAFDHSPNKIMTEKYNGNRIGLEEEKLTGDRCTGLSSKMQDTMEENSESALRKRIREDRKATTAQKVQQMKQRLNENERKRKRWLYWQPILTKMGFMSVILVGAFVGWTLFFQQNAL
Experimental: as §1

PTP1B = molecular target: T3, PTP1B (Homo sapiens, UniProt P18031); experiment: Enzymatic assay with pNPP as substrate, PTP1B; settings: pH 6.0, 37°C 30 min
T3 construct: host or cells: E. coli
T3 sequence (P18031 1-435): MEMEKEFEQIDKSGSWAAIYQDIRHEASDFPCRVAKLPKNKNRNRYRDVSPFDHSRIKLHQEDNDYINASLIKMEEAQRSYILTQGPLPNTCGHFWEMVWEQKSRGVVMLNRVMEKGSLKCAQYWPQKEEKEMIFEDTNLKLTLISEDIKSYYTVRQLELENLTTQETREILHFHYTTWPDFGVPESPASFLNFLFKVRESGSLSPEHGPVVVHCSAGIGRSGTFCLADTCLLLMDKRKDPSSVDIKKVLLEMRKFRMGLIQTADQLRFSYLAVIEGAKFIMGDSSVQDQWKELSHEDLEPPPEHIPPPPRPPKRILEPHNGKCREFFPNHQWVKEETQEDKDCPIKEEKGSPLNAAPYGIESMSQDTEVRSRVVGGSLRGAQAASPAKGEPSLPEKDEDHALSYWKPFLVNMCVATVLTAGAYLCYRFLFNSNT
Experimental: as §1

SMILES | pIC50 (PTP-MEG2) | pIC50 (TCPTP; pNPP substrate, pH 6.0, 37°C 30 min, read-out: IC50 TCPTP) | pIC50 (PTP1B) | pIC50 (TCPTP)
O=C(CCCSc1nc2ccccc2s1)Nc1cccc2ccccc12 [Compound 4b, 4-(benzo[d]thiazol-2-ylthio)-N-(naphthalen-1-yl)butanamide] | 5.37 | < 4.60 | < 4.60 | 
O=C(CSc1nc2ccccc2s1)Nc1cccc2ccccc12 [Compound 4a, 2-(benzo[d]thiazol-2-ylthio)-N-(naphthalen-1-yl)acetamide] | 5.49 |  | < 4.60 | < 4.60

Source: article PMC5239439, “Virtual screening, optimization, and identification of a novel specific PTP-MEG2 Inhibitor with potential therapy for T2DM” (Oncotarget, 2016)
